Values joined by “and” are separate entries in the source; they are usually repeats but may differ in a detail not shown here. Equal values may be shown once. Inconclusive results and toxic doses are left out.

Our source for the T/C values is PubChem BioAssay AID330 (DTP/NCI, 2004).

The test relates to P388 leukemia ip, CD2F1 mice, survival T/C. Briefly: NCI In Vivo Anticancer Drug Screen. Data for tumor model P388 Leukemia (intraperitoneal) in CD2F1 (CDF1) mice. The settings on record: endpoint: median survival time, higher = longer survival. In short, it runs like this:
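Mice carrying the transplanted tumor received test compound or vehicle. Survival was recorded in each group, and the value is the treated-group measurement divided by that of the vehicle-treated control group.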

The mark [1] stands for this setting: dose: 50.0 mg/kg/injection, schedule: Q01DX009 (ip), vehicle: saline with Tween-80.
Setting [2] is: dose: 60.0 mg/kg/injection, schedule: Q01DX005 (ip), vehicle: saline with Tween-80.
Setting [3] is: dose: 120.0 mg/kg/injection, schedule: Q01DX005 (ip), vehicle: saline with Tween-80.
[4] abbreviates: dose: 240.0 mg/kg/injection, schedule: Q01DX005 (ip), vehicle: saline with Tween-80.
Setting [5] is: dose: 100.0 mg/kg/injection, schedule: Q01DX009 (ip), vehicle: saline with Tween-80.
[6] abbreviates: dose: 25.0 mg/kg/injection, schedule: Q01DX009 (ip), vehicle: saline with Tween-80.
Setting [7] is: dose: 50.0 mg/kg/injection, schedule: Q01DX005 (ip), vehicle: Klucel (hydroxypropylcellulose) (HPC).
Where [8] appears, read: dose: 100.0 mg/kg/injection, schedule: Q01DX005 (ip), vehicle: Klucel (hydroxypropylcellulose) (HPC).
Where [9] appears, read: dose: 200.0 mg/kg/injection, schedule: Q01DX005 (ip), vehicle: Klucel (hydroxypropylcellulose) (HPC).
Where [10] appears, read: dose: 50.0 mg/kg/injection, schedule: Q01DX005 (ip), vehicle: saline with Tween-80.
Setting [11] is: dose: 100.0 mg/kg/injection, schedule: Q01DX005 (ip), vehicle: saline with Tween-80.
[12] abbreviates: dose: 200.0 mg/kg/injection, schedule: Q01DX005 (ip), vehicle: saline with Tween-80.
The mark [13] stands for this setting: dose: 50.0 mg/kg/injection, schedule: Q01DX009 (ip), vehicle: Klucel (hydroxypropylcellulose) (HPC).
Setting [14] is: dose: 100.0 mg/kg/injection, schedule: Q01DX009 (ip), vehicle: Klucel (hydroxypropylcellulose) (HPC).
Where [15] appears, read: dose: 200.0 mg/kg/injection, schedule: Q01DX009 (ip), vehicle: Klucel (hydroxypropylcellulose) (HPC).
The mark [16] stands for this setting: dose: 50.0 mg/kg/injection, schedule: Q01DX009 (ip), vehicle: saline.
Setting [17] is: dose: 100.0 mg/kg/injection, schedule: Q01DX009 (ip), vehicle: saline.

Regarding `N#CCCC1CS1` (configuration not stated), the T/C was 103 % of control (dose: 18.75 mg/kg/injection, schedule: Q01DX009 (ip), vehicle: saline with Tween-80); 108 % of control (dose: 37.5 mg/kg/injection, schedule: Q01DX009 (ip), vehicle: saline with Tween-80); 109 % of control (dose: 75.0 mg/kg/injection, schedule: Q01DX009 (ip), vehicle: saline with Tween-80).

With `NC(=S)NNC(=O)C(Cc1ccccc1)NC(=O)OCc1ccccc1` (configuration not stated), the T/C under setting [1] was 93 % of control.

For `CC12OC(c3ccccc3)C(C)(OC1c1ccccc1)O2` (configuration not stated), the T/C (dose: 60.0 mg/kg/injection, schedule: Q01DX005 (ip), vehicle: Klucel (hydroxypropylcellulose) (HPC)) was 102 % of control; the T/C (dose: 120.0 mg/kg/injection, schedule: Q01DX005 (ip), vehicle: Klucel (hydroxypropylcellulose) (HPC)) was 100 % of control; the T/C (dose: 240.0 mg/kg/injection, schedule: Q01DX005 (ip), vehicle: Klucel (hydroxypropylcellulose) (HPC)) was 98 % of control.

For `COc1cccc(C2=NC(=C3CCCCC3)C(=O)O2)c1`, the T/C was 105 % of control under setting [2], 105 % of control under setting [3] and 100 % of control under setting [4].

For the compound `O=[N+]([O-])c1ccc(/C=[N+](\[O-])CCO)cc1`, the T/C under setting [5] was 99 % of control and the T/C (dose: 200.0 mg/kg/injection, schedule: Q01DX009 (ip), vehicle: saline with Tween-80) was 92 % of control.

Take `O=S(=O)(Nc1ccc(C(F)(F)F)cc1)c1ccc(F)cc1`: the T/C is 100 % of control under setting [2], 100 % of control under setting [3] and 104 % of control under setting [4].

With `O=C1CCC(Cc2ccccc2)CN1` (configuration not stated), the T/C under setting [2] is 97 % of control, the T/C under setting [3] was 101 % of control and the T/C under setting [4] is 97 % of control.

Consider `Cc1ccn2cc(CC(=O)O)nc2c1`, for which the T/C is 104 % of control (dose: 100.0 mg/kg/injection, schedule: Q01DX001 (ip), vehicle: Klucel (hydroxypropylcellulose) (HPC)); 100 % of control (dose: 200.0 mg/kg/injection, schedule: Q01DX001 (ip), vehicle: Klucel (hydroxypropylcellulose) (HPC)); 96 % of control (dose: 400.0 mg/kg/injection, schedule: Q01DX001 (ip), vehicle: Klucel (hydroxypropylcellulose) (HPC)).

Take `O=C(c1cccs1)C1SC(C(=O)c2cccs2)C2(O)c3cccc4cccc(c34)C12O` (configuration not stated): for the setting “dose: 7.5 mg/kg/injection, schedule: Q01DX009 (ip), vehicle: Klucel (hydroxypropylcellulose) (HPC)”, the T/C was 100 % of control.

For `COc1ccc(C#CC(O)C(F)(F)F)cc1` (configuration not stated), the T/C by setting is: under setting [6], 102 % of control; under setting [1], 106 % of control; under setting [5], 107 % of control.

Regarding `Nc1cccc2cccc([N+](=O)[O-])c12`, the T/C is 97 % of control (dose: 25.0 mg/kg/injection, schedule: Q01DX001 (ip), vehicle: saline with Tween-80); 110 % of control (dose: 50.0 mg/kg/injection, schedule: Q01DX001 (ip), vehicle: saline with Tween-80); 99 % of control (dose: 100.0 mg/kg/injection, schedule: Q01DX001 (ip), vehicle: saline with Tween-80); 98 % of control (dose: 200.0 mg/kg/injection, schedule: Q01DX001 (ip), vehicle: saline with Tween-80).

`CCSC(=O)OCC(F)([N+](=O)[O-])[N+](=O)[O-]`: the T/C (dose: 100.0 mg/kg/injection, schedule: Q04DX003 (ip), vehicle: saline) was 108 % of control; the T/C (dose: 200.0 mg/kg/injection, schedule: Q04DX003 (ip), vehicle: saline) is 100 % of control; the T/C (dose: 400.0 mg/kg/injection, schedule: Q04DX003 (ip), vehicle: saline) is 104 % of control.

Turning to `CNC(=O)OC1=NCCN1`, the T/C is 94 % of control under setting [7], 100 % of control under setting [8] and 99 % of control under setting [9].

As for `Cc1ccc(C)c(C[n+]2ccccc2C2(C)OCCO2)c1`, the T/C is, setting by setting: under setting [10], 101 % of control; under setting [11], 103 % of control; under setting [12], 100 % of control.

Take `CC1CN2C(=O)NC(=O)C1(c1ccccc1)C2=O` (configuration not stated): the T/C is, setting by setting: under setting [13], 100 % of control; under setting [14], 93 % of control; under setting [15], 97 % of control.

As to `CC(=O)Nc1ccc(S(=O)(=O)/N=C2\C=CC(=O)c3ccccc32)cc1`, the T/C is, setting by setting: under setting [6], 105 % of control; under setting [1], 115 % of control; under setting [5], 110 % of control.

With `CN1CCCN(C)C1c1ccccc1`, the T/C runs as follows: (dose: 25.0 mg/kg/injection, schedule: Q01DX009 (ip), vehicle: saline) 105 % of control; under setting [16], 110 % of control; under setting [17], 95 % of control.

Regarding `N#CC1CSCC1=O` (configuration not stated), the T/C reads like this: under setting [6], 103 % of control; under setting [1], 100 % of control; under setting [5], 99 % of control.

Take `CCN(CC)CCOC(=O)C(OCCOc1ccccc1)(c1ccccc1)c1ccccc1`: the T/C under setting [7] is 117 % of control and the T/C under setting [8] was 117 % of control.

As to `COc1ccc(-n2nc3c(c2-c2cccnc2)CCCc2ccccc2-3)cc1`, the T/C was 95 % of control under setting [10], 106 % of control under setting [11] and 101 % of control under setting [12].

Regarding `O=C1CN(c2cccc(Cl)c2)C(=O)CN1/N=C/c1cccnc1`, the T/C reads like this: (dose: 25.0 mg/kg/injection, schedule: Q01DX005 (ip), vehicle: saline with Tween-80) 96 % of control; under setting [10], 87 % of control and 91 % of control; under setting [12], 87 % of control.

As for `O=c1[nH]ccc2sccc12`, the T/C is, setting by setting: under setting [1], 95 % of control; under setting [5], 100 % of control.

Consider `CCCCNCCC1(CCC(C)C)C(=O)NC(=O)NC1=O`, for which the T/C is 96 % of control under setting [7], 105 % of control under setting [8] and 101 % of control under setting [9].

As to `O=P(N1CC1)(N1CC1)N1CC1`, the T/C (dose: 3.0 mg/kg/injection, schedule: Q01DX009 (ip), vehicle: saline) is 216 % of control.

As for `COc1ccc([N+](=O)[O-])cc1NC(=O)C1C(=O)C(=O)N(c2cc([N+](=O)[O-])ccc2OC)C1=O` (configuration not stated), the T/C runs as follows: under setting [13], 100 % of control; under setting [14], 100 % of control; under setting [15], 115 % of control.

For `O=C(CBr)C1(Br)CCN(Cc2ccccc2)CC1`, the T/C by setting is: (dose: 3.13 mg/kg/injection, schedule: Q01DX009 (ip), vehicle: Klucel (hydroxypropylcellulose) (HPC)) 109 % of control; (dose: 6.25 mg/kg/injection, schedule: Q01DX009 (ip), vehicle: Klucel (hydroxypropylcellulose) (HPC)) 115 % of control; (dose: 12.5 mg/kg/injection, schedule: Q01DX009 (ip), vehicle: Klucel (hydroxypropylcellulose) (HPC)) 109 % of control.

For `CCOC(=O)C(=O)Nc1c(C(C)=O)cc(C)c(C)c1C#N`, the T/C by setting is: (dose: 50.0 mg/kg/injection, schedule: Q01DX009 (ip), vehicle: saline + alcohol) 92 % of control; (dose: 100.0 mg/kg/injection, schedule: Q01DX009 (ip), vehicle: saline + alcohol) 97 % of control; (dose: 200.0 mg/kg/injection, schedule: Q01DX009 (ip), vehicle: saline + alcohol) 96 % of control.

Turning to `C/C(=N\NC(=S)N1CCCCC1)c1ccccn1`, the T/C (dose: 6.25 mg/kg/injection, schedule: Q01DX009 (ip), vehicle: saline with Tween-80) was 98 % of control and the T/C (dose: 12.5 mg/kg/injection, schedule: Q01DX009 (ip), vehicle: saline with Tween-80) was 100 % of control.

With `CCOCCOc1nc(C)cc(C)c1C#N`, the T/C by setting is: under setting [10], 102 % of control; under setting [11], 105 % of control; under setting [12], 96 % of control.

On to `O=C1C(O)=C(O)C(=O)C(O)=C1O`, for which the T/C was 108 % of control under setting [16]; 111 % of control under setting [17]; 117 % of control (dose: 200.0 mg/kg/injection, schedule: Q01DX009 (ip), vehicle: saline).

Regarding `CC1(C)CC(N2CCOCC2)=CC(=S)N1`, the T/C under setting [7] is 100 % of control, the T/C under setting [8] is 103 % of control and the T/C under setting [9] is 98 % of control.

Take `COc1cc(C=C2C(=O)C=CC2=O)cc(OC)c1OC`: the T/C reads like this: (dose: 1.25 mg/kg/injection, schedule: Q04DX002 (ip), vehicle: saline with Tween-80) 107 % of control; (dose: 2.5 mg/kg/injection, schedule: Q04DX002 (ip), vehicle: saline with Tween-80) 99 % of control; (dose: 5.0 mg/kg/injection, schedule: Q04DX002 (ip), vehicle: saline with Tween-80) 104 % of control.
